Assay results as given in PubChem BioAssay (NCI).
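1) Cells in 96-well plates. 2) Compound, 48 h, 5 concentrations. 3) Linear interpolation between surrounding doses. 4) Unreached endpoint = highest concentration. Abbreviation: GI50, concentration required for 50% inhibition of growth. TGI marks complete inhibition of growth.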

Key:
Assay in all cases: inhibition of tumour cell growth, NCI panel, 48 h
ACHN renal = test system: ACHN renal
NCI-H460 lung = test system: NCI-H460 lung
BT-549 breast = test system: BT-549 breast
SF-295 CNS = test system: SF-295 CNS
786-0 renal = test system: 786-0 renal
LOX IMVI melanoma = test system: LOX IMVI melanoma
MCF7 breast = test system: MCF7 breast
CAKI-1 renal = test system: CAKI-1 renal
K-562 leukemia = test system: K-562 leukemia
HT29 colon = test system: HT29 colon
SK-MEL-5 melanoma = test system: SK-MEL-5 melanoma
OVCAR-4 ovarian = test system: OVCAR-4 ovarian
SF-268 CNS = test system: SF-268 CNS
SR leukemia = test system: SR leukemia
UO-31 renal = test system: UO-31 renal
OVCAR-5 ovarian = test system: OVCAR-5 ovarian
HCT-116 colon = test system: HCT-116 colon
SK-MEL-28 melanoma = test system: SK-MEL-28 melanoma
M14 melanoma = test system: M14 melanoma
TK-10 renal = test system: TK-10 renal
OVCAR-3 ovarian = test system: OVCAR-3 ovarian
SK-MEL-2 melanoma = test system: SK-MEL-2 melanoma
A498 renal = test system: A498 renal
SF-539 CNS = test system: SF-539 CNS
NCI-H226 lung = test system: NCI-H226 lung
IGROV1 ovarian = test system: IGROV1 ovarian
HCC-2998 colon = test system: HCC-2998 colon
UACC-257 melanoma = test system: UACC-257 melanoma
HS 578T breast = test system: HS 578T breast
OVCAR-8 ovarian = test system: OVCAR-8 ovarian
PC-3 prostate = test system: PC-3 prostate
UACC-62 melanoma = test system: UACC-62 melanoma
A549 NSCLC = test system: A549 NSCLC
COLO 205 colon = test system: COLO 205 colon
EKVX NSCLC = test system: EKVX NSCLC
RXF 393 renal = test system: RXF 393 renal
HOP-92 NSCLC = test system: HOP-92 NSCLC
CCRF-CEM leukemia = test system: CCRF-CEM leukemia
MOLT-4 leukemia = test system: MOLT-4 leukemia
NCI/ADR-RES ovarian = test system: NCI/ADR-RES ovarian
RPMI-8226 leukemia = test system: RPMI-8226 leukemia
MALME-3M melanoma = test system: MALME-3M melanoma
U251 CNS = test system: U251 CNS
T-47D breast = test system: T-47D breast
SW-620 colon = test system: SW-620 colon
HCT-15 colon = test system: HCT-15 colon
SNB-75 CNS = test system: SNB-75 CNS
MDA-MB-231 breast = test system: MDA-MB-231 breast
SK-OV-3 ovarian = test system: SK-OV-3 ovarian
NCI-H23 lung = test system: NCI-H23 lung
NCI-H522 lung = test system: NCI-H522 lung
HOP-62 NSCLC = test system: HOP-62 NSCLC
SNB-19 CNS = test system: SNB-19 CNS
KM12 colon = test system: KM12 colon
SN12C renal = test system: SN12C renal
DU-145 prostate = test system: DU-145 prostate
MDA-MB-435 = test system: MDA-MB-435

## O=c1oc2ccc(Cl)cc2c(=O)n1-c1ccc(Cl)cc1F
ACHN renal
  GI50: 512 nM
  TGI: 8320 nM
NCI-H460 lung
  GI50: 412 nM
  TGI: 11000 nM
BT-549 breast
  GI50: 483 nM
  TGI: 2440 nM
SF-295 CNS
  GI50: 856 nM
  TGI: 2430 nM
786-0 renal
  GI50: 1760 nM
  TGI: 4800 nM
LOX IMVI melanoma
  GI50: 424 nM
  TGI: 2270 nM
MCF7 breast
  GI50: 593 nM
  TGI: 23800 nM
CAKI-1 renal
  GI50: 271 nM
  TGI: 1670 nM
K-562 leukemia
  GI50: 422 nM
  TGI: > 100000 nM
HT29 colon
  GI50: 3330 nM
  TGI: > 33500 nM
SK-MEL-5 melanoma
  GI50: 205 nM
  TGI: 486 nM
OVCAR-4 ovarian
  GI50: 377 nM
  TGI: 78900 nM
SF-268 CNS
  GI50: 419 nM
  TGI: 7070 nM
SR leukemia
  GI50: 462 nM
UO-31 renal
  GI50: 188 nM
  TGI: 1620 nM
OVCAR-5 ovarian
  GI50: 3830 nM
  TGI: > 95000 nM
HCT-116 colon
  GI50: 442 nM
  TGI: 1700 nM
SK-MEL-28 melanoma
  GI50: 379 nM
  TGI: 2290 nM
M14 melanoma
  GI50: 578 nM
  TGI: 2120 nM
TK-10 renal
  GI50: 1590 nM
  TGI: 17700 nM
OVCAR-3 ovarian
  GI50: 355 nM
  TGI: 13800 nM
SK-MEL-2 melanoma
  GI50: 370 nM
  TGI: 2260 nM
A498 renal
  GI50: 161 nM
  TGI: 498 nM
SF-539 CNS
  GI50: 462 nM
  TGI: 3700 nM
NCI-H226 lung
  GI50: 576 nM
  TGI: 3300 nM
IGROV1 ovarian
  GI50: 237 nM
  TGI: 20600 nM
HCC-2998 colon
  GI50: 2360 nM
  TGI: 8090 nM
UACC-257 melanoma
  GI50: 496 nM
  TGI: 2310 nM
HS 578T breast
  GI50: 285 nM
  TGI: 1970 nM
OVCAR-8 ovarian
  GI50: 721 nM
  TGI: > 21700 nM
PC-3 prostate
  GI50: 812 nM
  TGI: 5040 nM
UACC-62 melanoma
  GI50: 247 nM
  TGI: 964 nM
A549 NSCLC
  GI50: 998 nM
  TGI: > 31600 nM
COLO 205 colon
  GI50: 6740 nM
  TGI: 22400 nM
EKVX NSCLC
  GI50: 688 nM
  TGI: 11300 nM
RXF 393 renal
  GI50: 512 nM
  TGI: 1850 nM
HOP-92 NSCLC
  GI50: 143 nM
  TGI: 490 nM
CCRF-CEM leukemia
  GI50: 1700 nM
  TGI: 10400 nM
MOLT-4 leukemia
  GI50: 581 nM
  TGI: 2690 nM
NCI/ADR-RES ovarian
  GI50: 532 nM
  TGI: 3790 nM
RPMI-8226 leukemia
  GI50: 280 nM
  TGI: 1090 nM
MALME-3M melanoma
  GI50: 313 nM
  TGI: 1550 nM
U251 CNS
  GI50: 566 nM
  TGI: > 31600 nM
T-47D breast
  GI50: 360 nM
  TGI: 2200 nM
SW-620 colon
  GI50: 652 nM
  TGI: 9020 nM
HCT-15 colon
  GI50: 791 nM
  TGI: 6690 nM
SNB-75 CNS
  GI50: 219 nM
  TGI: 1540 nM
MDA-MB-231 breast
  GI50: 397 nM
  TGI: 4590 nM
SK-OV-3 ovarian
  GI50: 501 nM
NCI-H23 lung
  GI50: 326 nM
  TGI: 1790 nM
NCI-H522 lung
  GI50: 331 nM
  TGI: 3220 nM
HOP-62 NSCLC
  GI50: 622 nM
  TGI: 2860 nM
SNB-19 CNS
  GI50: 391 nM
  TGI: > 100000 nM
KM12 colon
  GI50: 1520 nM
  TGI: 4500 nM
SN12C renal
  GI50: 431 nM
  TGI: 3780 nM
DU-145 prostate
  GI50: 846 nM
  TGI: 24700 nM
MDA-MB-435
  GI50: 572 nM
  TGI: 4860 nM

## CC12CN(CC[N+](C)(C)C)CC1(C)C1CCC2O1 (centres undefined)
ACHN renal
  TGI: > 100000 nM
NCI-H460 lung
  TGI: > 100000 nM
BT-549 breast
  TGI: > 100000 nM
SF-295 CNS
  TGI: > 100000 nM
786-0 renal
  TGI: > 100000 nM
LOX IMVI melanoma
  TGI: > 100000 nM
MCF7 breast
  TGI: > 100000 nM
CAKI-1 renal
  TGI: > 100000 nM
K-562 leukemia
  TGI: > 100000 nM
HT29 colon
  TGI: > 100000 nM
SK-MEL-5 melanoma
  TGI: > 100000 nM
OVCAR-4 ovarian
  TGI: > 100000 nM
SF-268 CNS
  TGI: > 100000 nM
SR leukemia
  TGI: > 100000 nM
UO-31 renal
  TGI: > 100000 nM
OVCAR-5 ovarian
  TGI: > 100000 nM
HCT-116 colon
  TGI: > 100000 nM
SK-MEL-28 melanoma
  TGI: > 100000 nM
M14 melanoma
  TGI: > 100000 nM
TK-10 renal
  TGI: > 100000 nM
OVCAR-3 ovarian
  TGI: > 100000 nM
SK-MEL-2 melanoma
  TGI: > 100000 nM
A498 renal
  TGI: > 100000 nM
SF-539 CNS
  TGI: > 100000 nM
NCI-H226 lung
  TGI: > 100000 nM
IGROV1 ovarian
  TGI: > 100000 nM
HCC-2998 colon
  TGI: > 100000 nM
UACC-257 melanoma
  TGI: > 100000 nM
HS 578T breast
  TGI: > 100000 nM
OVCAR-8 ovarian
  TGI: > 100000 nM
PC-3 prostate
  TGI: > 100000 nM
UACC-62 melanoma
  TGI: > 100000 nM
A549 NSCLC
  TGI: > 100000 nM
COLO 205 colon
  TGI: > 100000 nM
EKVX NSCLC
  TGI: > 100000 nM
RXF 393 renal
  TGI: > 100000 nM
HOP-92 NSCLC
  TGI: > 100000 nM
CCRF-CEM leukemia
  TGI: > 100000 nM
MOLT-4 leukemia
  TGI: > 100000 nM
NCI/ADR-RES ovarian
  TGI: > 100000 nM
RPMI-8226 leukemia
  TGI: > 100000 nM
MALME-3M melanoma
  TGI: > 100000 nM
U251 CNS
  TGI: > 100000 nM
T-47D breast
  TGI: > 100000 nM
SW-620 colon
  TGI: > 100000 nM
HCT-15 colon
  TGI: > 100000 nM
SNB-75 CNS
  TGI: > 100000 nM
MDA-MB-231 breast
  TGI: > 100000 nM
SK-OV-3 ovarian
  TGI: > 100000 nM
NCI-H23 lung
  TGI: > 100000 nM
NCI-H522 lung
  TGI: > 100000 nM
HOP-62 NSCLC
  TGI: > 100000 nM
SNB-19 CNS
  TGI: > 100000 nM
KM12 colon
  TGI: > 100000 nM
SN12C renal
  TGI: > 100000 nM
DU-145 prostate
  TGI: > 100000 nM
MDA-MB-435
  TGI: > 100000 nM
